“Also recorded” adds a separate entry of the source.
What was measured:
[1] = test system: dexamethasone-induced thymic and splenic atrophy; experiment: Dexamethasone-induced thymic and splenic atrophy in mice; assay type: in vivo, CD-1 mice; conditions: for protection against DEX-induced thymic and splenic atrophy: CD-1 mice
Description: Administration of dehydroepiandrosterone (DHEA, 60 mg/kg, s.c.) for three days partially reverse thymic and splenic atrophy induced by a single injection of dexamethasone (1.6 mg/mouse). In this experiment, the efficacy of either 10 mg/kg or 20 mg/kg DHEA administered s.c. versus the effect of 10 mg/kg or 20 mg/kg fluasterone was investigated.
5% Cremophor (polyethoxylated castor oil; Sigma Chemicals)-95% saline vehicle was prepared using 95 mL of sterile 0.9% NaCl (filtered through sterile 0.22 micron filter) and 5 mL of Cremophor. The Cremophor was dissolved by swirling for approximately 5 minutes.
Dexamethasone solutions were prepared by dissolving dexamethasone (Sigma Chemicals) in absolute ethanol. For example, 71.9 mg of dexamethasone was dissolved in 2.9 mL of absolute ethanol. In order to prevent precipitation, the solution was kept on a hotplate between injections.
For the 10 mg/kg suspension, 25.7 mg of DHEA was weighed out, transferred to a glass scintillation vial, and 10.3 mL of the Cremophor-saline vehicle was added. The DHEA suspension was homogenized using a Tissumizer at 80% power for 30 sec. The Tissumizer was rinsed with 70% ethanol prior to homogenization. After the 10 mg/kg DHEA suspension was homogenized the probe was rinsed 2× with 50 mL of absolute ethanol, then with 50 mL of 70% ethanol, and then dried with sterile gauze. For the 20 mg/kg DHEA suspension, 50.9 mg DHEA was suspended in 10.2 mL of Cremophor-saline vehicle.
19.4 mg of fluasterone was weighed out and transferred to a glass scintillation vial. 7.8 mL of Cremophor-saline vehicle was added to the vial and the contents of the vial were homogenized with a Tissumizer as described previously. Prior to preparing the 20 mg/kg fluasterone, the probe was rinsed 2× with 50 mL of absolute ethanol and 1× with 50 mL of 70% ethanol. For the 20 mg/kg suspension, 47.0 mg was weighed out and transferred to a glass scintillation vial. 9.4 mL of Cremophor-saline vehicle was added to the vial and the contents of the vial were homogenized with a Tissumizer as described above.
Female CD-1 mice, 43-45 days old, were obtained from Charles River Laboratories. The mice were housed 5 per cage in plastic shoebox cages with ad libitum access to Purina chow 5015 and water in the Pharmacy CAF with 12 hr of alternating light and darkness.
Prior to the experiment the mice were weighed, separated into 6 groups containing 5 mice each and treated as follows:
Mice were treated s.c. with 0.1 mL of 5% Cremophor-95% saline for three days. On the third day, the mice were also treated s.c. with 1.6 mg of dexamethasone dissolved in 0.06 mL of absolute. ethanol.
Mice were treated s.c. with 0.25 mg of DHEA suspended in 0.1 mL of 5% Cremophor-95% saline for three days. On the third day, the mice were also treated s.c. with 1.6 mg of dexamethasone dissolved in 0.06 mL of absolute ethanol.
Mice were treated s.c. with 0.5 mg of DHEA suspended in 0.1 mL of 5% Cremophor-95% saline for three days. On the third day, the mice were also treated s.c. with 1.6 mg of dexamethasone dissolved in 0.06 mL of absolute ethanol.
Mice were treated s.c. with 0.25 mg of fluasterone suspended in 0.1 mL of 5% Cremophor-95% saline for three days. On the third day, the mice were also treated s.c. with 1.6 mg of dexamethasone dissolved in 0.06 mL of absolute ethanol.
Mice were treated s.c. with 0.5 mg of fluasterone suspended in 0.1 mL of 5% Cremophor-95% saline for three days. On the third day, the mice were also treated s.c. with 1.6 mg of dexamethasone dissolved in 0.06 mL of absolute ethanol.
All s.c. injections were made in the nape. All mice were lightly anesthetized while the s.c. injections were done.
Twenty-four hours after dexamethasone treatment, the mice were euthanized by an overdose of isoflurane. The spleen and thymus were removed, cleaned of any adventitia, rinsed, blotted on filter paper, and weighed. […]

[2] = test system: dexamethasone-induced thymic and splenic atrophy; conditions: C3H/HeN mice; 60 mg/kg s.c. 3 days; single DEX dose 1.6 mg; Blauer et al. 1991; cited from earlier work
[3] = Table 12, 10 mg/kg s.c. 3 days + dexamethasone 1.6 mg s.c. on day 3, 24 h after dexamethasone
[4] = Table 12, 20 mg/kg s.c. 3 days + dexamethasone 1.6 mg s.c. on day 3, 24 h after dexamethasone
[5] = Table 14, micronized steroid 20 mg/kg + dexamethasone
[6] = Table 14, micronized steroid 60 mg/kg + dexamethasone

Question: What does the source list for `C[C@]12CC[C@H](O)CC1=CC[C@@H]1[C@@H]2CC[C@]2(C)C(=O)CC[C@@H]12` [DHEA, dehydroepiandrosterone, reference compound]?
Answer: protection against DEX-induced thymic and splenic atrophy ([1]; 10 mg/kg): inactive; protection against DEX-induced thymic and splenic atrophy ([1]; 20 mg/kg): no apparent protection; also recorded: inactive; protection against DEX-induced thymic and splenic atrophy ([1]; 60 mg/kg): significantly protected; Body Weight [1, 3]: 23.7 ± 1.0; Spleen wt [1, 3]: 46.4 ± 3.7; Spleen wt/BW [1, 3]: 2.0 ± 0.2; Thymus wt [1, 3]: 31.7 ± 2.6; Thymus wt/BW [1, 3]: 1.3 ± 0.2; Body Weight [1, 4]: 24.5 ± 2.1; Spleen wt [1, 4]: 51.4 ± 2.2; Spleen wt/BW [1, 4]: 2.1 ± 0.2; Thymus wt [1, 4]: 36.6 ± 5.2; Thymus wt/BW [1, 4]: 1.5 ± 0.2; Body Weight [1, 5]: 27.4 ± 4.0; Spleen wt [1, 5]: 56.8 ± 8.1; Spleen wt/BW [1, 5]: 2.1 ± 0.1; Thymus wt [1, 5]: 39.3 ± 4.1; Thymus wt/BW [1, 5]: 1.4 ± 0.1; Body Weight [1, 6]: 27.0 ± 3.1; Spleen wt [1, 6]: 79.9 ± 16.0; Spleen wt/BW [1, 6]: 3.0 ± 0.4; Thymus wt [1, 6]: 63.2 ± 7.8; Thymus wt/BW [1, 6]: 2.3 ± 0.2; Approximate Potency Compared to Fluasterone in Protecting Against DEX-induced Thymic and Splenic Involution ([1]; fluasterone = 1, mice): about ⅙; effect on DEX-induced thymic and splenic atrophy [2]: significantly reduces
